Assay results: patent US6645965B1, “Nitrate salts of antihypertensive medicines” (priority 1998, dated 2003)

How the values were obtained:
[1] = tested on: arterial hypertension induced by L-NAME; test: Arterial hypertension induced by L-NAME, systemic arterial pressure by caudal way; assay type: in vivo, rat; details: Carrier 170 ± 7
Experimental: The inhibiting effect of Losartan nitrate on the arterial hypertension has been assayed by using two experimental models: the arterial hypertension induced by L-NAME (see the preceding example) and the muscular contraction produced by Angiotensin II. In the first experiment Wistar adult male rats (235-284 g) received for 6 weeks drinking water containing L-NAME. at a 60-70 mg/100 ml concentration, equivalent to a daily dose of about 60 mg/Kg. […] One hour after the last treatment, the systemic arterial pressure was determined by caudal way, as described by Zatz, Lab. Anim. Sci., 42, 198, 1990. […] In the second experiment the method described by Taylor (see Example 10) has been followed as described before. The prostatic part of the isolated deferent duct of rats (200-220 g) was removed and dipped in a physiologic solution at 37° C. and then contracted by transmural stimulation (95% of the maximum stimulation, 0.2 Hz).

[2] = tested on: muscular contraction produced by Angiotensin II (isolated ileum); test: Contraction of isolated guinea pig ileum produced by Angiotensin II; details: Angiotensin II 10 mcg/ml, compound 10^−6M, Carrier = 100
Source text: In the second experiment (contraction produced by Angiotensin II), the method described by P. C. Wong et al., Hypertension, 13, 489-497, 1989 has been followed.

[3] = tested on: prostatic part of the isolated deferent duct contracted by transmural stimulation; test: Vascular contraction of isolated rat deferent duct induced by electric stimulation; details: compound 10^−6 M, within 5 minutes, Carrier = 100
Source text: The inhibiting effect of Minoxidil nitrate on the arterial hypertension has been determined by using two experimental models: the arterial hypertension induced by L-NAME (see Example 10) and the vascular contraction induced by electric stimulation. In the first pharmacological experiment the rats have been treated as described in the pharmacological experiment with L-NAME of Example 11. In the second experiment the method described by Taylor (see Example 10) has been followed as described before. The prostatic part of the isolated deferent duct of rats (200-220 g) was removed and dipped in a physiologic solution at 37° C. and then contracted by transmural stimulation (95% of the maximum stimulation, 0.2 Hz).
The vasorelaxing activity is expressed as the reduction of the contractive neurogenic response, determined within 5 minutes from the. addition of the tested compound at a 10^−6 M concentration.

[4] = tested on: ileal contraction caused by calcium chloride; test: Ileal contraction caused by calcium chloride (calcium antagonist activity); details: guinea pig ileum, calcium chloride 20 mcg/ml, compound 10^−6 M; Carrier = 100
Experimental: In the latter, the experimental model adapted was that of the ileal contraction caused by calcium chloride, according to the method described by M. J. Spedding, J. Pharmacology 83, 211-220, 1984. Ileus segments taken from guinea pig (300-350 g) were maintained at 37° C. in a physiologic solution not containing calcium ions and then stimulated by calcium chloride addition (final concentration 20 mcg/ml). The calcium antagonist activity was determined as the reduction of the ileal contraction following addition of each of the test compounds at a concentration 10^−6 M.

[5] = tested on: bronchoconstriction induced in guinea pigs by the Capsaicin injection; test: Experimental bronchoconstriction induced by Capsaicin injection (tidal air variation, Konzett apparatus); assay type: in vivo, guinea pig
Experimental: The compounds at a dose of 10 mg/kg and the corresponding carrier have been administered to the guinea pigs (groups of 6 animals each) by intraperitoneal route for three consecutive days. The animals were prepared according to the method of Del Soldato et al. J. Pharmacol. Methods 5 279 1981. 45 minutes later 0.1 ml of a Capsaicin saline solution (1 μg/Kg) was injected to the animals intravenously. The tidal air variation before and after the Capsaicin administration was measured by a Konzett apparatus, modified as described in the above mentioned reference, connected to a polygraphic system. The effects of the compounds and of their corresponding nitrate salts on the experimental bronchoconstriction induced in guinea pigs by the Capsaicin injection are reported in Table 1.

[6] = tested on: isolated human cavernous artery; test: Relaxation of isolated human cavernous artery pre-contracted with adrenaline; details: 10^−6 M; adrenaline 3.10^−6 M
Source text: (§1) The relaxation effect of the cavernous artery and of the human cavernosum corpora (vasodilating effect at a peripheric level) was also studied. It was used the technique described by R. G. Hempelmann et al., European Journal of Pharmacology 276, 277-280 (1995), employing erectile tissues coming from patients submitted to surgical operation. The cavernous arteries have been isolated and cleaned up from the surrounding connective tissue. Segments of about 2 mm length were obtained and were mounted in a myograph equipment.
(§2) After having drawn an experimental curve diameter/tension, the specimens have been adjusted to a diameter corresponding to 90% of the one reached in the presence of a transluminal pressure of 100 mm Hg; after a stabilization period of about 60 minutes, contraction was effected by adrenaline 3.10^−6 M. After 15 minutes a dose corresponding to 10^−6 M of each of the tested compounds was added and the relaxation percentage was recorded.

[7] = tested on: isolated human cavernous tissue; test: Relaxation of isolated human cavernous tissue strips precontracted with adrenaline; details: 10^−6 M; adrenaline 3.10^−6 M
Source text: as §1, §2
A second series of experiments has been carried out according to the same protocol, on the isolated strips, 3×3×5 mm, of cavernous tissue, isometrically suspended in baths for isolated organs, under a 5-10 mN tension.

[8] = tested on: prostatic part of the deferent vessel contracted by transmural stimulation; test: Prostatic deferent vessel constriction induced by submaximum electric stimulation, rats treated with L-NAME; set-up: species or system rat; details: 10 mg/kg s.c. daily for five days, tested substance 10^−6 M, within 5 minutes, Carrier = 100
Experimental: The compounds have been administered in physiological solution. The control group has been treated with the carrier (physiologic solution) only. The vaso-relaxing activity of Sildenafil nitrate was determined by using the experimental model of the prostatic deferent vessels constriction, induced by submaximum electric stimulation (D. A. Taylor et al., J. Pharmacol. Exp. Ther. 224, 40-45 1983), in rats treated with N^w-nitro-L-arginine methyl ester (L-NAME) as described by Ribeiro et al., Hypertension, 20, 298, 1992. […] […] One hour after the last treatment,. the animals were sacrificed and the prostatic part of the deferent vessel was removed, dipped in a physiologic solution at 37° C., and contracted by transmural stimulation (95% of the maximum stimulation, 0.2 Hz). The reduction of the neurogenic contractive response, which results within 5 minutes from the addition of the tested substance at a concentration of 10^−6 M, is taken as a measure of the vasorelaxing activity.

[9] = tested on: left atrium specimens stimulated by Isoprenaline; test: Inotropic-positive effect caused by Isoprenaline in guinea pig left atrium (beta-adrenolytic activity); details: Isoprenaline 10 mcg/ml, compound 10^−6M, Carrier = 100
Experimental: In the latter experiment the method described by Grodzinski et al., Arch. Int. Phramacodyn., 191, 133-141, 1971 was followed. The left atrium specimens taken from guinea pigs (300-350 g) were maintained at 32° C. in a physiologic solution wherein the concentration of calcium ion was ⅓ lower and stimulated by Isoprenaline (10 mcg/ml). The beta-adrenolitic activity is expressed as the reduction of the inotropic-positive effect (increase of the cardiac muscle contraction) following addition of the compound under examination at a 10^−6M concentration.

[10] = Diuretic effect in rats (urine volume over 6 hours); assay type: in vivo, rat; details: 10 mg/Kg subcutaneously, urine volume over 6 hours as percentage of carrier group
Experimental: In the latter experiment the diuretic effect was studied according to the method described by W. L. Lipschwitz et al. J. Pharmacol. Exp. Ther., 79, 97-110, 1943. No 3 groups of 6 rats (200-220 g) each, stalled in metabolic cages received drinking distilled water (25 ml/Kg p.o.). Each group was then subcutaneously injected with Amiloride nitrate (10 mg/Kg), Amiloride (10 mg/Kg) or carrier respectively. The urine volume was collected during a period of 6 hours following drug administration, measured in ml. The diuretic effect is expressed as percentage of the collected urine volume calculated on that of the group treated with the carrier.

gastric tissue = test: Gastric toxicity in rats given ethanol 50% by os (gastric lesions); assay type: in vivo; details: Sprague-Dawley male rats (n=10), 10 mg/Kg i.p. as free base, ethanol 50% by os 30 minutes later; Controls 50
Experimental: 5 groups of Sprague-Dawley male rats (n=10), were fasted for 24 hours. 4 groups were then respectively treated i.p. with Sildenafil, Zaprinast, and the relevant nitrate salts of said drugs. One group was not treated and was tha control group. 30 minutes later 1 ml of ethanol 50% in water was given by os to the animals.
One hour later the animals were sacrificed. The stomach was removed and the gastric tissue was macroscopically examined.
The results are reported in Table X. In the Table the gastric toxicity given as % incidence is the number of rats in a group showing gastric lesions.

[11] = Table V, L-NAME rats, 10 mg/kg s.c. daily for five days, one hour after last treatment
[12] = Table VI, L-NAME rats treated as in Example 11
[13] = Table VIII, L-NAME rats, model of Example 11
[14] = guinea pigs, 10 mg/kg intraperitoneal for three consecutive days, Capsaicin 1 μg/Kg i.v., Carrier = 100
[15] = Table VII, L-NAME rats, model of Example 11

Compound: CCCCc1nc(Cl)c(CO)n1Cc1ccc(-c2ccccc2-c2nn[nH]n2)cc1 [Losartan, reference compound]
- Average arterial pressure (mm Hg) [1, 11]: 153 ± 5 mm Hg
- Effect on the contraction of the smooth musculature % (n = 5) [2]: 33%

Compound: Nc1cc(N2CCCCC2)nc(N)[n+]1[O-] [Minoxidil, 6-(1-piperidiny-1)-2,4-pyrimidinediamine 3-oxide, reference compound]
- Average arterial pressure (mm Hg) [1, 12]: 132 ± 6 mm Hg
- Effect on the vasoconstriction % (n = 5) [3]: 18%

Compound: COC(=O)C1=C(C)NC(C)=C(C(=O)OCCN(C)Cc2ccccc2)C1c1cccc([N+](=O)[O-])c1 (stereo not shown) [Nicardipine, 1,4-dihydro-2,6-dimethyl-4-(3-nitrophenyl)-3,5-pyridinedicarboxylic acid methyl 2[methyl-(phenylmethyl)amino]ethyl ester, reference compound]
- Average arterial pressure (mm Hg) [1, 13]: 122 ± 6 mm Hg
- Contracturing effect % (n = 5) [4]: 25%

Compound: CC(C)NCC(O)COc1cccc2ccccc12 (stereo not shown) [Propranolol, reference compound]
- Bronchoconstrictive effect (%) [5, 14]: 280%

Compound: [NH-]c1c[n+](N2CCOCC2)no1 [SIN-1]
- Relaxing effect on the isolated human cavernous artery pre-contracted with adrenaline (n = 5) (relaxation %) [6]: 36 ± 7%
- Relaxing effect on the isolated human cavernous tissue precontracted with adrenaline (n = 4) (relaxation %) [7]: 33 ± 4%

Compound: CCCc1nn(C)c2c(=O)[nH]c(-c3cc(S(=O)(=O)N4CCN(C)CC4)ccc3OCC)nc12 [Sildenafil]
- Effect on vasoconstriction (%) [8]: 68%
- Relaxing effect on the isolated human cavernous artery pre-contracted with adrenaline (n = 5) (relaxation %) [6]: 25 ± 4%
- Relaxing effect on the isolated human cavernous tissue precontracted with adrenaline (n = 4) (relaxation %) [7]: 42 ± 6%

Compound: CC(C)(C)NC[C@H](O)COc1nsnc1N1CCOCC1 [Timolol, reference compound]
- Bronchoconstrictive effect (%) [5, 14]: 188%
- Average arterial pressure (mm Hg) [1, 15]: 144 ± 5 mm Hg
- Inotropic positive effect % (n = 5) [9]: 32%

Compound: Amiloride Nitrate Salt [Amiloride.HNO3]
- Average arterial pressure (mm Hg) ([1]; Table IX, L-NAME rats, model of Example 11): 110 ± 5 mm Hg
- Diuretic effect % (n = 5) [10]: 215%

Compound: Losartan nitrate [Losartan.HNO3]
- Average arterial pressure (mm Hg) [1, 11]: 115 ± 4 mm Hg
- Effect on the contraction of the smooth musculature % (n = 5) [2]: 12%

Compound: Minoxidil nitrate [Minoxidil.HNO3]
- Average arterial pressure (mm Hg) [1, 12]: 110 ± 6 mm Hg
- Effect on the vasoconstriction % (n = 5) [3]: 5%

Compound: Nicardipine Nitrate Salt [Nicardipine.HNO3]
- Average arterial pressure (mm Hg) [1, 13]: 108 ± 3 mm Hg
- Contracturing effect % (n = 5) [4]: 8%

Compound: Propranolol nitrate salt [Propranolol.HNO3]
- Bronchoconstrictive effect (%) [5, 14]: 110%

Compound: Sildenafil Nitrate Salt [Sildenafil.HNO3]
- Effect on vasoconstriction (%) [8]: 25%
- Relaxing effect on the isolated human cavernous artery pre-contracted with adrenaline (n = 5) (relaxation %) [6]: 61 ± 3%
- Relaxing effect on the isolated human cavernous tissue precontracted with adrenaline (n = 4) (relaxation %) [7]: 68 ± 7%

Compound: Timolol nitrate salt [Timolol.HNO3]
- Bronchoconstrictive effect (%) ([5]; guinea pig, in vivo, 10 mg/kg): 94%
- Average arterial pressure (mm Hg) [1, 15]: 108 ± 8 mm Hg
- Inotropic positive effect % (n = 5) [9]: 13%

Compound: Zaprinast Nitrate [Zaprinast.HNO3]
- Gastric toxicity (% incidence) (gastric tissue): 30 % incidence
